According to PubChem BioAssay AID256 (DTP/NCI, 2004):
“And” between values parts separate entries of the source, which are not always exact repeats. Equal values may be shown once. Toxic doses and inconclusive results are not listed. Rule for the calls: active = survival T/C of 150% or more; inactive = T/C below 125% in these data.

Test system: CD2F1 mice, L1210 leukemia ip, survival T/C
Assay: NCI In Vivo Anticancer Drug Screen. Data for tumor model L1210 Leukemia (intraperitoneal) in CD2F1 (CDF1) mice
Details: higher = longer survival
Outline: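 Tumor-bearing mice (transplanted tumor) were split into treated and vehicle control groups, and the measured endpoint of each treated group was divided by that of its vehicle controls.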

[1] = endpoint: mean survival time, dose: 100.0 mg/kg/injection, schedule: Q01DX009 (ip), vehicle: saline
[2] = endpoint: mean survival time, dose: 200.0 mg/kg/injection, schedule: Q01DX001 (ip), vehicle: saline
[3] = endpoint: mean survival time, dose: 200.0 mg/kg/injection, schedule: Q04DX003 (ip), vehicle: saline
[4] = endpoint: mean survival time, dose: 50.0 mg/kg/injection, schedule: Q01DX009 (ip), vehicle: Klucel (hydroxypropylcellulose) (HPC)
[5] = endpoint: mean survival time, dose: 100.0 mg/kg/injection, schedule: Q01DX009 (ip), vehicle: Klucel (hydroxypropylcellulose) (HPC)
[6] = endpoint: mean survival time, dose: 200.0 mg/kg/injection, schedule: Q01DX009 (ip), vehicle: Klucel (hydroxypropylcellulose) (HPC)
[7] = endpoint: mean survival time, dose: 100.0 mg/kg/injection, schedule: Q04DX003 (ip), vehicle: saline with Tween-80
[8] = endpoint: mean survival time, dose: 200.0 mg/kg/injection, schedule: Q04DX003 (ip), vehicle: saline with Tween-80
[9] = endpoint: mean survival time, dose: 400.0 mg/kg/injection, schedule: Q04DX003 (ip), vehicle: saline with Tween-80
[10] = endpoint: mean survival time, dose: 100.0 mg/kg/injection, schedule: Q04DX002 (ip), vehicle: saline with Tween-80
[11] = endpoint: mean survival time, dose: 200.0 mg/kg/injection, schedule: Q04DX002 (ip), vehicle: saline with Tween-80
[12] = endpoint: mean survival time, dose: 400.0 mg/kg/injection, schedule: Q04DX002 (ip), vehicle: saline with Tween-80
[13] = endpoint: mean survival time, dose: 100.0 mg/kg/injection, schedule: Q04DX002 (ip), vehicle: saline
[14] = endpoint: mean survival time, dose: 200.0 mg/kg/injection, schedule: Q04DX002 (ip), vehicle: saline
[15] = endpoint: mean survival time, dose: 400.0 mg/kg/injection, schedule: Q04DX002 (ip), vehicle: saline
[16] = endpoint: mean survival time, dose: 100.0 mg/kg/injection, schedule: Q01DX009 (ip), vehicle: saline with Tween-80
[17] = endpoint: mean survival time, dose: 200.0 mg/kg/injection, schedule: Q01DX009 (ip), vehicle: saline with Tween-80
[18] = endpoint: mean survival time, dose: 400.0 mg/kg/injection, schedule: Q01DX009 (ip), vehicle: saline with Tween-80

Measured: T/C

COc1ccc2c(c1OC(C)=O)-c1cc(OC(C)=O)cc3c1C(C2)NCC3 (stereo unspecified)
inactive: endpoint: mean survival time, dose: 3.13 mg/kg/injection, schedule: Q04DX003 (ip), vehicle: saline with Tween-80 96 % of control | endpoint: mean survival time, dose: 6.25 mg/kg/injection, schedule: Q04DX003 (ip), vehicle: saline with Tween-80 94 % of control | endpoint: mean survival time, dose: 12.5 mg/kg/injection, schedule: Q04DX003 (ip), vehicle: saline with Tween-80 94 % of control | endpoint: mean survival time, dose: 25.0 mg/kg/injection, schedule: Q04DX003 (ip), vehicle: saline with Tween-80 94 % of control

BrC1CCCCCCC1Br (stereo unspecified)
inactive: endpoint: mean survival time, dose: 25.0 mg/kg/injection, schedule: Q01DX009 (ip), vehicle: saline 96 % of control | endpoint: mean survival time, dose: 50.0 mg/kg/injection, schedule: Q01DX009 (ip), vehicle: saline 94 % of control | [1] 93 % of control

CN(CCCOS(C)(=O)=O)CCCOS(C)(=O)=O
inactive: endpoint: mean survival time, dose: 6.3 mg/kg/injection, schedule: Q01DX009 (ip), vehicle: saline 123 % of control | endpoint: mean survival time, dose: 6.3 mg/kg/injection, schedule: Q04DX003 (ip), vehicle: saline 117 % of control and 119 % of control and 109 % of control | endpoint: mean survival time, dose: 8.4 mg/kg/injection, schedule: Q01DX009 (oral), vehicle: saline 104 % of control | endpoint: mean survival time, dose: 12.5 mg/kg/injection, schedule: Q01DX001 (ip), vehicle: saline 108 % of control | endpoint: mean survival time, dose: 39.0 mg/kg/injection, schedule: Q01DX009 (oral), vehicle: saline 121 % of control | endpoint: mean survival time, dose: 65.0 mg/kg/injection, schedule: Q01DX001 (oral), vehicle: saline 104 % of control | [1] 87 % of control and 105 % of control and 93 % of control | endpoint: mean survival time, dose: 108.0 mg/kg/injection, schedule: Q01DX001 (oral), vehicle: saline 102 % of control | [2] 118 % of control | [3] 87 % of control and 88 % of control | endpoint: mean survival time, dose: 300.0 mg/kg/injection, schedule: Q01DX001 (oral), vehicle: saline 114 % of control

COc1ccc(NC(=O)N(CCO)c2ccccc2)c(Cl)c1
inactive: [4] 107 % of control | [5] 104 % of control | [6] 107 % of control

Clc1ccc(-n2cccc2)cc1
inactive: [7] 98 % of control | [8] 91 % of control | [9] 98 % of control

CCc1cc(C(C)(C)C)c(O)c(C(C)(C)C)c1
inactive: endpoint: mean survival time, dose: 25.0 mg/kg/injection, schedule: Q01DX009 (ip), vehicle: Klucel (hydroxypropylcellulose) (HPC) 102 % of control | [4] 102 % of control | [5] 98 % of control

CC(C)(C)OC(=O)NC(Cc1cn(Cc2ccccc2)cn1)C(=O)O (stereo unspecified)
inactive: [7] 95 % of control | [8] 101 % of control | [9] 93 % of control

O=C(Nc1ccc(Cl)c(Cl)c1)Nc1ccc(Cl)c(Cl)c1 (tested in a mixture with another compound)
inactive: [10] 97 % of control | [11] 90 % of control | [12] 97 % of control

O=C1CSC2(CCN(Cc3ccccc3)CC2)O1
inactive: endpoint: mean survival time, dose: 100.0 mg/kg/injection, schedule: Q01DX001 (ip), vehicle: saline 98 % of control | [2] 102 % of control | endpoint: mean survival time, dose: 400.0 mg/kg/injection, schedule: Q01DX001 (ip), vehicle: saline 95 % of control

O=[N+]([O-])c1cc(S(=O)(=O)O)cc(S(=O)(=O)O)c1O
inactive: [13] 100 % of control | [14] 107 % of control | [15] 103 % of control

Nc1ncnc2cc3ncn(C4OC(CO)C(O)C4O)c3cc12 (stereo unspecified)
inactive: endpoint: mean survival time, dose: 12.5 mg/kg/injection, schedule: Q01DX005 (ip), vehicle: water 100 % of control | endpoint: mean survival time, dose: 25.0 mg/kg/injection, schedule: Q01DX005 (ip), vehicle: water 104 % of control | endpoint: mean survival time, dose: 50.0 mg/kg/injection, schedule: Q01DX005 (ip), vehicle: water 106 % of control | endpoint: mean survival time, dose: 100.0 mg/kg/injection, schedule: Q01DX005 (ip), vehicle: water 100 % of control | endpoint: mean survival time, dose: 200.0 mg/kg/injection, schedule: Q01DX005 (ip), vehicle: water 100 % of control

CN(C)P(=O)(OCCCOCc1ccccc1)N(CCCl)CCCl (stereo unspecified)
inactive: endpoint: mean survival time, dose: 25.0 mg/kg/injection, schedule: Q01DX001 (ip), vehicle: other 93 % of control | endpoint: mean survival time, dose: 50.0 mg/kg/injection, schedule: Q01DX001 (ip), vehicle: other 101 % of control | endpoint: mean survival time, dose: 100.0 mg/kg/injection, schedule: Q01DX001 (ip), vehicle: other 91 % of control | endpoint: mean survival time, dose: 200.0 mg/kg/injection, schedule: Q01DX001 (ip), vehicle: other 90 % of control | endpoint: mean survival time, dose: 400.0 mg/kg/injection, schedule: Q01DX001 (ip), vehicle: other 87 % of control

CCOC(=O)NCCB(O)O
inactive: [13] 100 % of control | [14] 88 % of control | [15] 95 % of control

NS(=O)(=O)c1cccc([As](=O)(O)O)c1
inactive: endpoint: mean survival time, dose: 50.0 mg/kg/injection, schedule: Q04DX003 (ip), vehicle: saline 105 % of control | endpoint: mean survival time, dose: 100.0 mg/kg/injection, schedule: Q04DX003 (ip), vehicle: saline 95 % of control | [3] 94 % of control

CCCC[N+](CCCC)(CCCC)CCCC.[Cl-].[Cl-].[Cl-].[Cl-].[Cl-].[Cl-].[Cl-].[Cl-].[Re].[Re]
inactive: [10] 112 % of control | [11] 112 % of control | [12] 116 % of control

O=C(O)/C(=C\c1ccccc1)c1ccccc1
inactive: [16] 90 % of control | [17] 101 % of control | [18] 95 % of control

Nc1ccc(-c2ccc(N)c(Cl)c2)cc1Cl
inactive: [5] 105 % of control | [6] 103 % of control | endpoint: mean survival time, dose: 400.0 mg/kg/injection, schedule: Q01DX009 (ip), vehicle: Klucel (hydroxypropylcellulose) (HPC) 100 % of control

COc1ccc(NC2=C(C)C(=O)C3=C(C2=O)[C@H](COC(N)=O)[C@]2(OC)[C@@H]4N[C@@H]4CN32)cc1OC
inactive: endpoint: median survival time, dose: 3.0 mg/kg/injection, schedule: Q01DX001 (ip), vehicle: water 124 % of control and 111 % of control | endpoint: median survival time, dose: 6.0 mg/kg/injection, schedule: Q01DX001 (ip), vehicle: water 124 % of control | endpoint: median survival time, dose: 24.0 mg/kg/injection, schedule: Q01DX001 (ip), vehicle: water 110 % of control

CCCC/C=C/C=C/CCCC
inactive: endpoint: mean survival time, dose: 50.0 mg/kg/injection, schedule: Q01DX009 (ip), vehicle: saline with Tween-80 103 % of control | [16] 92 % of control | [17] 107 % of control

O=C1c2ccccc2C(=O)N1CO
inactive: endpoint: mean survival time, dose: 100.0 mg/kg/injection, schedule: Q01DX001 (ip), vehicle: saline with Tween-80 108 % of control | [16] 101 % of control | endpoint: mean survival time, dose: 200.0 mg/kg/injection, schedule: Q01DX001 (ip), vehicle: saline with Tween-80 106 % of control | [17] 97 % of control | endpoint: mean survival time, dose: 400.0 mg/kg/injection, schedule: Q01DX001 (ip), vehicle: saline with Tween-80 104 % of control | [18] 101 % of control

NC(=S)N/N=C/c1cc(=O)c2cc(Cl)ccc2o1
inactive: endpoint: median survival time, dose: 75.0 mg/kg/injection, schedule: Q01DX005 (ip), vehicle: DMSO 95 % of control | endpoint: median survival time, dose: 150.0 mg/kg/injection, schedule: Q01DX005 (ip), vehicle: DMSO 98 % of control | endpoint: median survival time, dose: 300.0 mg/kg/injection, schedule: Q01DX005 (ip), vehicle: DMSO 97 % of control | endpoint: median survival time, dose: 600.0 mg/kg/injection, schedule: Q01DX005 (ip), vehicle: DMSO 96 % of control | endpoint: median survival time, dose: 1200.0 mg/kg/injection, schedule: Q01DX005 (ip), vehicle: DMSO 104 % of control

CCC(c1ccc(OC)cc1)C(CC)c1ccc(O)c(CN2CCN(C)CC2)c1 (stereo unspecified)
inactive: [16] 102 % of control

Cc1cn(C2CC(O)C(CO)O2)c(=O)nc1NC1CCCCCCCCCCC1 (stereo unspecified)
inactive: endpoint: median survival time, dose: 12.5 mg/kg/injection, schedule: Q01DX005 (ip), vehicle: distilled water + Tween-80 103 % of control | endpoint: median survival time, dose: 25.0 mg/kg/injection, schedule: Q01DX005 (ip), vehicle: distilled water + Tween-80 102 % of control | endpoint: median survival time, dose: 50.0 mg/kg/injection, schedule: Q01DX005 (ip), vehicle: distilled water + Tween-80 96 % of control | endpoint: median survival time, dose: 100.0 mg/kg/injection, schedule: Q01DX005 (ip), vehicle: distilled water + Tween-80 89 % of control
